# Results: patent US8729279B2, “Agent for promoting osteoblast differentiation, pharmaceutical composition for promoting bone formation, and food for special dietary use containing auraptene analog as active ingredient” (Erina Co., Inc., priority 2010, dated 2014)
# How the values were obtained:
# MC3T3-E1 cells [1] = test: Comparison with BMP-2 and effect of BMP signal inhibitors on ALP activity; type: cell-based, mouse; settings: 6 days
# Procedure: (§1) In addition, the activity of alkaline phosphatase (ALP), a marker enzyme of initial osteoblast differentiation, was measured by the following method. After incubation, the cells were fixed with cold methanol, and the dishes were dried. 100 μl of buffer of pH 8.5 containing 2 mM magnesium chloride and 100 mM Tris-HCl, with 6.7 mM p-nitrophenylphosphate as a substrate, was dispensed in each well and allowed to react at 37° C. for 30 minutes. Then, 100 μl of 0.1 N sodium hydroxide was added to terminate the reaction, followed by measurement with a plate reader of the absorbance at 405 nm, which was determined to be the ALP activity. The value was calculated by taking the control as 100.
# Upon the addition of the sample, the cells were cultured for 6 days in the presence or absence of 10 ng/ml Noggin, a BMP inhibitor, or 1 μM Dorsomorphin, an inhibitor of type I BMP receptor (ALK) (the above concentrations are the final concentrations), and the ALP activities were measured in the same manner as above.
# MC3T3-E1 cells [2] = test: Expression of genes related to osteoblast differentiation, real-time RT-PCR; type: cell-based, mouse; settings: compared with control
# Procedure: The effects on the expression of various genes related to osteoblast differentiation were analyzed using the real-time RT-PCR method.
# MC3T3-E1 cells were plated in each well of a 6-well plate (Greiner) at a concentration of 1.5×10^5 cells/well and cultured in the same manner as above. […] After incubation, the culture medium was removed and the cells were washed with PBS. Thereafter, “ISOGEN” (trade name, Wako Pure Chemical Industries, Ltd.) was added in an amount of 1 ml/well and the cells were collected. RNA purification was conducted according to the protocol described in the package insert of “ISOGEN”.
# Reverse transcription was performed using “PrimeScript RT-PCR Kit” (trade name, TaKaRa) with 2 μg of purified RNA according to the protocol described in the package insert, thereby synthesizing the cDNA sample.
# Real-time PCR was performed using “FastStart Universal SYBR Green Master (Rox)” (trade name, Roche) according to the protocol described in the package insert under the following conditions: incubation at 50° C. for 2 min and at 95° C. for 10 min, followed by 50 cycles of 15 sec at 95° C. and 1 min at 60° C. Data were analyzed with “ABI PRISM 7300 sequence detection system” (trade name, Applied Biosystems).
# Primers used were as described in the following Table 2.
# Data analysis was performed as follows using β-actin as an endogenous control gene by the comparative Ct method.
# Δ Ct=(Ct of target gene)−(Ct of endogenous control gene)
# ΔΔ Ct=(Δ Ct of target sample)−(Δ Ct of reference sample)
# Relative expression level of target gene of target sample to that of reference sample=2 (^−ΔΔ^Ct)
# MC3T3-E1 cells [3] = test: Cell number (MTT) in initial osteoblast differentiation culture; type: cell-based, mouse; settings: compound 1-100 μM, 6 days, FIG. 2 open bars
# Procedure: (§2) MC3T3-E1 cells which are mouse pre-osteoblastic cells were suspended in α-MEM and plated on each well of a 96-well microplate at a concentration of 5×10^3 cells/well. After 2-day pre-incubation in 10% FBS-containing α-MEM under a condition of 37° C. and 5% CO2, the culture medium was replaced with 10% FBS-containing α-MEM containing a compound at a concentration of 1, 3, 10, 30 or 100 μM and the cells were cultured for 6 days. During the incubation, the culture medium was replaced once in every 3 days. The cells cultured in the same manner using the medium without coumarin compounds were used as a control.
# At the end of incubation, the cell number was measured by the same method as above using a MTT reagent and the value was calculated by taking the control as 100.
# [4] = tested on: Postmenopausal osteoporosis model mice; test: Bone formation-promoting effect in vivo, ovariectomized mice, femur pQCT; design: species or system mouse; settings: OVX mice, 50 mg/kg/day oral, 30+30 days, versus OVX-Con
# Procedure: Postmenopausal osteoporosis model mice were prepared by ovariectomy and test compounds were administrated to the mice with decreased bone mass, to examine the effects on bone formation in vivo level.
# Slc; ddY mice (4 week-old, female) were purchased from Chubu Kagaku Shizai Co., Ltd. After 2 days, ovariectomy (“OVX”) or sham operation (“Sham”) was performed under Nembutal anesthesia. After the mice were bred for 1 month in order to decrease bone mass due to the progression in bone resorption, a part of mice in each group (OVX: N=5, Sham: N=3) were killed to collect the femurs. The rest of mice in the ovariectomy (“OVX”) group were divided into two groups: solvent administration group (“OVX-Con”: N=6) and auraptene administration group (50 mg/kg/day, oral administration, “OVX-AUR”: N=6) and bred for another month together with the sham operation group (Sham-Con: N=6). Thereafter, the mice were killed to collect the femurs.
# The bone mineral content density and the like of the collected femurs were measured by means of pQCT (peripheral Quantitative Computed Tomography) using a bone density measuring apparatus (trade name “XCT Research SA+”, manufactured by Stratec Medizintechnik GmbH).
# RAW264 cells [5] = test: Osteoclast differentiation, TRAP activity; type: cell-based, mouse; settings: RANKL 50 ng/ml, 3 days; FIG. 7 solid bars
# Procedure: RAW264 cells (mouse monocyte/macrophage cell line, cell No. RCB0535) were purchased from RIKEN Cell Bank. The osteoclast differentiation-inducing factor (RANKL) was obtained from Wako Pure Chemical Industries, Ltd. Others used were the same as above.
# (§3) RAW264 cells were suspended in α-MEM and plated in a 96-well microplate at a concentration of 3×10^3 cells/well. The compounds of the present invention at each concentration and the osteoclast differentiation-inducing factor (RANKL) were added at 50 ng/ml and the cells were cultured for 3 days in an incubator at 37° C. and 5% CO2. After incubation, the cells were fixed with a 10% formalin solution and refixed with 100% ethanol.
# After the dishes were dried, as an index of differentiation, the activity of tartrate-resistant acid phosphatase (TRAP), a marker enzyme of osteoclasts, was measured by the following method.
# For measurement of the TRAP activity, a buffer containing 10 mM tartrate and 50 mM citrate of pH 4.6, with 3.7 mM p-nitrophenylphosphate as a substrate, was used. […] Thereafter, 100 μl of 0.1 N sodium hydroxide was added to terminate the reaction, followed by measurement of the absorbance at 405 nm with a plate reader. Each absorbance was determined to be the TRAP activity, and the value calculated by taking control as 100 was shown.
# RAW264 cells [6] = test: Cell number (MTT) in osteoclast differentiation culture; type: cell-based, mouse; settings: RANKL 50 ng/ml, 3 days, FIG. 7 open bars
# Procedure: as §3
# In addition, after similarly cultured, the cells were counted by a conventional method using a MTT reagent, and the value calculated by taking the control as 100 was shown.
# MC3T3-E1 cells [7] = test: Effect on osteoblast proliferation (MTT); type: cell-based, mouse; settings: compound 1, 3, 10 or 30 μM, 3 days, FIG. 1
# Procedure: The effect on osteoblast proliferation was determined by the following method.
# MC3T3-E1 cells were suspended in α-MEM and plated on each well of a 96-well microplate at a concentration of 2×10^3 cells/well. After overnight incubation in 10% fetal bovine serum (FBS)-containing α-MEM under a condition of 37° C. and 5% CO2, the culture medium was replaced with 10% FBS-containing α-MEM containing a compound at a concentration of 1, 3, 10 or 30 μM and cultured for 3 days. The cells cultured in the same manner using the medium containing the same amount of solvent only were used as a control.
# Added was 3-(4,5-Dimethylthiazol-2-yl)-2,5-diphenyltetrazolium bromide (MTT) (5 mg/ml in PBS) in one-tenth amount of the culture medium 2 hours before the completion of incubation. After 2-hour cultivation, the medium was removed, formazan formed by viable cells was dissolved in DMSO and the absorbance at 570 nm (reference wavelength of 630 nm) was measured with a plate reader. The relative cell numbers were determined by calculating the values taking the control as 100 (average plus or minus standard deviation of 4 wells or more; the same hereinafter).
# MC3T3-E1 cells [8] = test: Initial osteoblast differentiation, alkaline phosphatase (ALP) activity; type: cell-based, mouse; settings: compound 1-100 μM, 6 days; FIG. 2 solid bars
# Procedure: as §2, §1
# MC3T3-E1 cells [9] = test: Osteoblast calcification, alizarin red S staining; type: cell-based, mouse; settings: compared with control
# Procedure: 3. Effects on Osteoblast Calcification MC3T3-E1 cells were suspended in α-MEM and plated in each well of a 96-well microplate at a concentration of 5×10^3 cells/well and pre-incubated for 2 days in 10% FBS-containing α-MEM under a condition of 37° C. and 5% CO2. Thereafter, the culture medium was replaced with 10% FBS-containing α-MEM containing a compound at a concentration of 1, 3, 10 or 30 μM, 50 μg/ml ascorbic acid and 10 mM β-glycerophosphoric acid, and the cells were cultured for 10 days. During the incubation, the culture medium was changed once in every 3 or 4 days.
# After incubation, the cells were fixed with 70% ethanol, the dishes were dried, and calcium deposits were stained with a 1% alizarin red S solution. The image of the stained plate was obtained using a scanner. In addition, the degree of stain (degree of calcification) was evaluated by naked eyes.
structure (smiles),measurement,setting,value
"CC(C)=CCC/C(C)=C/COc1ccc2ccc(=O)oc2c1 [auraptene, 2H-1-benzopyran-2-one, 7-[[(2E)-3,7-dimethyl-2,6-octadiene-1-yl]oxy]-]",effect of promoting ALP activity in presence of Dorsomorphin,"MC3T3-E1 cells [1]; Dorsomorphin 1 μM, auraptene 30 μM or BMP-2 25 ng/ml",diminished
same,effect of promoting ALP activity in presence of Noggin,"MC3T3-E1 cells [1]; Noggin 10 ng/ml, auraptene 30 μM or BMP-2 25 ng/ml",diminished
same,effect of promoting ALP activity,"MC3T3-E1 cells [1]; auraptene 30 μM versus BMP-2 25 ng/ml, FIG. 4",equivalent to or more than that with BMP-2 (25 ng/ml)
same,expression of ALP gene,"MC3T3-E1 cells [2]; auraptene 30 μM or BMP-2 50 ng/ml, FIG. 5A",increased
same,expression of osteocalcin gene,"MC3T3-E1 cells [2]; auraptene 30 μM or BMP-2 50 ng/ml, FIG. 5B",increased
same,expression of Runx 2 gene,"MC3T3-E1 cells [2]; auraptene 30 μM or BMP-2 50 ng/ml, FIG. 5C",increased
same,expression of Osterix gene,"MC3T3-E1 cells [2]; auraptene 30 μM or BMP-2 50 ng/ml, FIG. 5D",increased
same,expression of BMP-2 gene,"MC3T3-E1 cells [2]; auraptene 30 μM, FIG. 5E",increased
same,expression of BMP-4 gene,"MC3T3-E1 cells [2]; auraptene 30 μM, FIG. 5F",increased
same,cell viability of MC3T3-E1 cells (control as 100),MC3T3-E1 cells [3],little influence on cell viability
same,trabecular bone mineral density,[4]; FIG. 6A,tended to be high
same,total bone mineral density,[4]; FIG. 6B,tended to be high
same,cortical bone periosteal circumference,[4]; FIG. 6C,tended to be long
same,cortical bone endosteal circumference,[4]; FIG. 6D,tended to be long
same,TRAP activity as an index of osteoclast differentiation,RAW264 cells [5],do not affect osteoclast differentiation
same,cell number of RAW264 cells (control as 100),RAW264 cells [6],did not show a significant influence
same,"cell number of MC3T3-E1 cells (relative, control as 100)",MC3T3-E1 cells [7],little change in cell number
same,ALP activity (control as 100),MC3T3-E1 cells [8],increased in a concentration-dependent manner
same,calcified portions stained red,MC3T3-E1 cells [9],remarkably increased compared with control
